Results: patent US20120316184A1, “NOVEL MICROBICIDES” (SYNGENTA CROP PROTECTION LLC, priority 2010, published 2012)

Experiments:
Gaeumannomyces graminis = assay: Fungicidal activity against Gaeumannomyces graminis / liquid culture (take-all of cereals); assay type: cell-based; details: liquid culture (PDB), inhibition of growth determined photometrically 4-5 days after application, read-out: disease control
Protocol: (§1) Fungicidal Activity Against Gaeumannomyces graminis/Liquid Culture (Take-all of Cereals) Mycelial fragments of the fungus from cryogenic storage were directly mixed into nutrient broth (PDB potato dextrose broth). After placing a (DMSO) solution of test compound into a microtiter plate (96-well format), the nutrient broth containing the fungal spores is added. The test plates were incubated at 24° C. and the inhibition of growth was determined photometrically 4-5 days after application.

[1] = test system: Mycosphaerella arachidis (Cercospora arachidicola); assay: Fungicidal activity against Mycosphaerella arachidis (Cercospora arachidicola) / liquid culture (early leaf spot); assay type: cell-based; details: liquid culture (PDB), inhibition of growth determined photometrically 4-5 days after application, read-out: disease control
Protocol: as §1, with “Mycosphaerella arachidis (Cercospora arachidicola)/Liquid” for “Gaeumannomyces graminis/Liquid”, “(Early Leaf Spot) Conidia” for “(Take-all of Cereals) Mycelial fragments”, “was” for “is”

[2] = test system: Mycosphaerella graminicola (Septoria tritici); assay: Fungicidal activity against Mycosphaerella graminicola (Septoria tritici) / liquid culture (Septoria blotch); assay type: cell-based; details: Zymoseptoria tritici, liquid culture (PDB), inhibition of growth determined photometrically 4-5 days after application, read-out: disease control
Protocol: as §1, with “Mycosphaerella graminicola (Septoria tritici)/Liquid” for “Gaeumannomyces graminis/Liquid”, “(Septoria Blotch) Conidia” for “(Take-all of Cereals) Mycelial fragments”, “was” for “is”

[3] = test system: Botryotinia fuckeliana (Botrytis cinerea); assay: Fungicidal activity against Botryotinia fuckeliana (Botrytis cinerea) / liquid culture (gray mould); assay type: cell-based; details: liquid culture (Vogels broth), inhibition of growth determined photometrically 3-4 days after application, read-out: disease control
Protocol: as §1, with “Botryotinia fuckeliana (Botrytis cinerea)/Liquid” for “Gaeumannomyces graminis/Liquid”, “(Gray Mould) Conidia” for “(Take-all of Cereals) Mycelial fragments”, “(Vogels” for “(PDB potato dextrose”, “was” for “is”, “3-4” for “4-5”

[4] = test system: Puccinia recondita f. sp. tritici; assay: Fungicidal activity against Puccinia recondita f. sp. tritici / wheat / leaf disc preventative (brown rust); assay type: in vivo; details: foliar, wheat leaf segments cv. Kanzler, inoculated 1 day after application, assessed 7-9 days after application, vs untreated, read-out: disease control
Protocol: Fungicidal Activity Against Puccinia recondita f. sp. tritici/Wheat/Leaf Disc Preventative (Brown Rust) Wheat leaf segments cv. Kanzler were placed on agar in multiwell plates (24-well format) and sprayed with the formulated test compound diluted in water. The leaf disks were inoculated with a spore suspension of the fungus 1 day after application. The inoculated leaf segments were incubated at 19° C. and 75% rh under a light regime of 12 h light/12 h darkness in a climate cabinet and the activity of a compound was assessed as percent disease control compared to untreated when an appropriate level of disease damage appears in untreated check leaf segments (7-9 days after application).

[5] = test system: Monographella nivalis (Microdochium nivale); assay: Fungicidal activity against Monographella nivalis (Microdochium nivale) / liquid culture (foot rot cereals); assay type: cell-based; details: liquid culture (PDB), inhibition of growth determined photometrically 4-5 days after application, read-out: disease control
Protocol: as §1, with “Monographella nivalis (Microdochium nivale)/Liquid” for “Gaeumannomyces graminis/Liquid”, “(Foot Rot” for “(Take-all of”, “Conidia” for “Mycelial fragments”, “was” for “is”

[6] = test system: Phaeosphaeria nodorum (Septoria nodorum); assay: Fungicidal activity against Phaeosphaeria nodorum (Septoria nodorum) / wheat / leaf disc preventative (glume blotch); assay type: in vivo; details: Parastagonospora nodorum, foliar, wheat leaf segments cv. Kanzler, inoculated 2 days after application, assessed 5-7 days after application, vs untreated, read-out: disease control
Protocol: Fungicidal Activity Against Phaeosphaeria nodorum (Septoria nodorum)/Wheat/Leaf Disc Preventative (Glume Blotch) Wheat leaf segments cv. Kanzler were placed on agar in a multiwell plate (24-well format) and sprayed with the formulated test compound diluted in water. The leaf disks were inoculated with a spore suspension of the fungus 2 days after application. The inoculated test leaf disks were incubated at 20° C. and 75% rh under a light regime of 12 h light/12 h darkness in a climate cabinet and the activity of a compound was assessed as percent disease control compared to untreated when an appropriate level of disease damage appears in untreated check leaf disks (5-7 days after application).

Pyrenophora teres = assay: Fungicidal activity against Pyrenophora teres / barley / leaf disc preventative (net blotch); assay type: in vivo; details: foliar, barley leaf segments cv. Hasso, inoculated 2 days after application, assessed 5-7 days after application, vs untreated, read-out: disease control
Protocol: Fungicidal Activity Against Pyrenophora teres/Barley/Leaf Disc Preventative (Net Blotch) Barley leaf segments cv. Hasso were placed on agar in a multiwell plate (24-well format) and sprayed with the formulated test compound diluted in water. The leaf […] inoculated with a spore suspension of the fungus 2 days after application. The inoculated leaf segments were incubated at 20° C. and 65% rh under a light regime of 12 h light/12 h darkness in a climate cabinet and the activity of a compound was assessed as disease control compared to untreated when an appropriate level of disease damage appears in untreated check leaf segments (5-7 days after application).

[7] = test system: Glomerella lagenarium (Colletotrichum lagenarium); assay: Fungicidal activity against Glomerella lagenarium (Colletotrichum lagenarium) / liquid culture (anthracnose); assay type: cell-based; details: Colletotrichum orbiculare, liquid culture (PDB), inhibition of growth measured photometrically 3-4 days after application, read-out: disease control
Protocol: as §1, with “Glomerella lagenarium (Colletotrichum lagenarium)/Liquid” for “Gaeumannomyces graminis/Liquid”, “(Anthracnose) Conidia” for “(Take-all of Cereals) Mycelial fragments”, “was” for “is”, “measured” for “determined”, “3-4” for “4-5”

Phytophthora infestans = assay type: in vivo; details: 200 ppm; tomato leaf disks, inoculated 1 day after application, assessed 5-7 days after application, vs untreated

| Structure (SMILES) | inhibition of growth at 200 ppm (Gaeumannomyces graminis) | inhibition of growth at 200 ppm [1] | inhibition of growth at 200 ppm [2] | inhibition of growth at 200 ppm [3] | pest or weed control at 200 ppm [4] | inhibition of growth at 200 ppm [5] | pest or weed control at 200 ppm [6] | pest or weed control at 200 ppm (Pyrenophora teres) | inhibition of growth at 200 ppm [7] | disease control (Phytophthora infestans) |
| --- | --- | --- | --- | --- | --- | --- | --- | --- | --- | --- |
| Cc1cccc(-c2nc(-c3cccc(C)n3)nc3sccc23)c1 [Compound T15.12] | ≥ 80% | ≥ 80% | ≥ 80% | ≥ 80% | ≥ 80% | ≥ 80% | ≥ 80% | ≥ 80% | ≥ 80% | – |
| COc1nc(-c2cccc(-c3cc(C)ccc3C)n2)nc2sccc12 [Compound T15.8] | ≥ 80% | ≥ 80% | ≥ 80% | – | – | – | – | ≥ 80% | – | – |
| Cc1ccc(-c2ncc3cccnc3n2)nc1-c1ccccc1 [Compound T10.1.6, 2-(5-methyl-6-phenyl-pyridin-2-yl)-pyrido[2,3-d]pyrimidine] | ≥ 80% | ≥ 80% | ≥ 80% | ≥ 80% | ≥ 80% | ≥ 80% | ≥ 80% | ≥ 80% | ≥ 80% | – |
| Clc1nc(-c2cccc(Cc3ccccc3)n2)nc2sccc12 [Compound T3.1.33, 2-(6-benzyl-pyridin-2-yl)-4-chloro-thieno[2,3-d]pyrimidine] | ≥ 80% | ≥ 80% | ≥ 80% | – | ≥ 80% | ≥ 80% | ≥ 80% | – | ≥ 80% | – |
| Cc1cccc(-c2nc(-c3ccccc3)c3ncccc3n2)n1 [Compound T15.10] | ≥ 80% | ≥ 80% | ≥ 80% | ≥ 80% | ≥ 80% | – | ≥ 80% | ≥ 80% | ≥ 80% | – |
| Cc1cccc(-c2nc(-c3ccccc3C)c3ccsc3n2)n1 [Compound T15.13] | ≥ 80% | ≥ 80% | ≥ 80% | ≥ 80% | – | – | ≥ 80% | – | ≥ 80% | – |
| c1ccc(Cc2cccc(-c3ncc4ccsc4n3)n2)cc1 [Compound T15.16] | ≥ 80% | ≥ 80% | ≥ 80% | ≥ 80% | ≥ 80% | ≥ 80% | ≥ 80% | ≥ 80% | ≥ 80% | – |
| Cc1cccc(-c2nc(-c3ccc(Cl)cc3)c3ccsc3n2)n1 [Compound T15.15] | ≥ 80% | ≥ 80% | ≥ 80% | ≥ 80% | ≥ 80% | ≥ 80% | ≥ 80% | ≥ 80% | ≥ 80% | – |
| Cc1sc2nc(-c3cccc(Cc4ccccc4)n3)ncc2c1C [Compound T15.4] | ≥ 80% | ≥ 80% | – | ≥ 80% | – | ≥ 80% | – | ≥ 80% | – | – |
| c1ccc(Cc2cccc(-c3ncc4c5c(sc4n3)CCC5)n2)cc1 [Compound T15.2] | ≥ 80% | ≥ 80% | – | – | – | – | – | – | – | – |
| COc1cccc(-c2nc(-c3cccc(C)n3)nc3sccc23)c1 [Compound T15.11] | ≥ 80% | ≥ 80% | ≥ 80% | ≥ 80% | ≥ 80% | ≥ 80% | ≥ 80% | ≥ 80% | ≥ 80% | – |
| COc1nc(-c2cccc(Cc3ccccc3)n2)nc2sccc12 [Compound T3.1.35, 2-(6-benzyl-pyridin-2-yl)-4-methoxy-thieno[2,3-d]pyrimidine] | ≥ 80% | ≥ 80% | ≥ 80% | – | – | ≥ 80% | ≥ 80% | – | ≥ 80% | – |
| c1ccc(Cc2cccc(-c3ncc4ccsc4n3)n2)cc1 [Compound T3.1.31, 2-(6-benzyl-pyridin-2-yl)-thieno[2,3-d]pyrimidine] | – | – | – | – | – | – | – | – | – | at least 80% |
| Cc1ccc(C)c(-c2cccc(-c3nc(O)c4ccsc4n3)n2)c1 [Compound T15.7] | ≥ 80% | – | – | – | – | ≥ 80% | – | – | – | – |
| Cc1cccc(-c2nc(-c3ccccc3Cl)c3ccsc3n2)n1 [Compound T15.14] | ≥ 80% | ≥ 80% | ≥ 80% | ≥ 80% | – | – | ≥ 80% | ≥ 80% | ≥ 80% | – |
| COc1nc(-c2cccc(C#CC3CC3)n2)nc2sccc12 [Compound T15.9] | ≥ 80% | ≥ 80% | – | – | – | ≥ 80% | – | – | – | – |
| CCOc1nc(-c2cccc(Cc3ccccc3)n2)nc2sccc12 [Compound T15.1] | ≥ 80% | ≥ 80% | ≥ 80% | – | ≥ 80% | ≥ 80% | – | – | ≥ 80% | – |
| Cc1cc(F)ccc1-c1cccc(-c2nc(O)c3ccsc3n2)n1 [Compound T15.5] | ≥ 80% | – | – | ≥ 80% | – | – | – | – | – | – |
